Series [1] in a line: Inhibition of Haemophilus influenzae acetyltransferase activity of GlmU using acetyl-CoA and glucosamine-1-phosphate after 30 mins by Ellman's method. (In Ellman's method for cholinesterases, released thiocholine reacts with DTNB.)
Series [2] in a line: Inhibition of Escherichia coli acetyltransferase activity of GlmU using acetyl-CoA and glucosamine-1-phosphate after 30 mins by Ellman's method.
In series [3] the target is Bifunctional protein GlmU (Streptococcus pneumoniae serotype 4 (strain ATCC BAA-334 / TIGR4), UniProt Q97R46). Put plainly: (§1) Inhibition of Streptococcus pneumoniae acetyltransferase activity of GlmU using acetyl-CoA and glucosamine-1-phosphate after 30 mins by Ellman's method.
Sequence of Bifunctional protein GlmU (Q97R46 whole entry): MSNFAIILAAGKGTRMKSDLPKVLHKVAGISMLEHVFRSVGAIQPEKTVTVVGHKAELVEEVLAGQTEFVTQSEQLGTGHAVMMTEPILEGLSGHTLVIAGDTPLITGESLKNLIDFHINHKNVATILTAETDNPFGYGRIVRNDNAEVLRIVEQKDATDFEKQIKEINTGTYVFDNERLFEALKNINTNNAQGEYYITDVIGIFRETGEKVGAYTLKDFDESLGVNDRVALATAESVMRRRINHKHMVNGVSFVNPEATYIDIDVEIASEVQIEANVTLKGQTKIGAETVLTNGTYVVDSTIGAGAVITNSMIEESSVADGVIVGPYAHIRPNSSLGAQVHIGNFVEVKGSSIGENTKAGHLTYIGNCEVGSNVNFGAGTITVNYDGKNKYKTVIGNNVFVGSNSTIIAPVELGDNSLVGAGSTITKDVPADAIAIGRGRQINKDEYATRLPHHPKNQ
The nature of series [4]: Inhibition of Staphylococcus aureus acetyltransferase activity of GlmU using acetyl-CoA and glucosamine-1-phosphate after 30 mins by Ellman's method.
The nature of series [5]: Lipophilicity, log D of the compound at pH 7.4. To be noted: buffer.
Series [6] has as its target Bifunctional protein GlmU (Streptococcus pneumoniae serotype 4 (strain ATCC BAA-334 / TIGR4)) (UniProt Q97R46). The description is as §1.

Molecules are shown by their SMILES.

Sequence of Bifunctional protein GlmU (Streptococcus pneumoniae serotype 4 (strain ATCC BAA-334 / TIGR4)) (Q97R46 whole entry): as above

In general, IC50 refers to the concentration needed to halve the response being measured. Low readings indicate higher potency, high ones lower potency. In general, logD refers to lipophilicity at a set pH, counting ionised and neutral species. In the case of `COc1cc(OC)c(S(=O)(=O)N2c3ccccc3CCC2C)cc1NC(=O)CCC(=O)O` (stereo not drawn), the IC50 in series [1] is 0.6 µM; in series [2] it was 0.09 µM; in series [3] it was 20 µM; in series [4] it was over 200 µM. The logD in series [5] was -0.87.

For the compound `COC(=O)c1ccccc1CNS(=O)(=O)c1cc(NC(C)=O)c(OC)cc1OC`, the IC50 is 55 µM in series [1], 15 µM in series [2], over 200 µM in series [3] and over 200 µM in series [4].

Take `CCN(c1ccccc1C)S(=O)(=O)c1cc(NC(C)=O)c(OC)cc1OC`: the IC50 is 80 µM in series [1], 15 µM in series [2], over 200 µM in series [3] and over 200 µM in series [4].

As for `COc1cc(OC)c(S(=O)(=O)N2CCCC2C)cc1NC(C)=O` (stereo not drawn), the IC50 in series [1], in series [2], in series [3] and in series [4] was over 200 µM throughout.

As to `COc1cc(OC)c(S(=O)(=O)NCc2ccccc2N2CCC(CO)CC2)cc1NC(=O)CCC(=O)O`, the IC50 in series [1] was 6 µM; in series [2], 3 µM; in series [3], 5 µM; in series [4], over 200 µM. Further, the log distribution coefficient (logD) in series [5] is under -1.

For `COc1cc(OC)c(S(=O)(=O)N2c3ccccc3CCC2C)cc1NC(=O)c1ccccc1` (stereo not drawn), the half-maximal inhibitory concentration (IC50) in series [1], in series [2], in series [3] and in series [4] was over 200 µM throughout.

For `COc1cc(OC)c(S(=O)(=O)N2c3ccccc3CCC2C)cc1NC(=O)/C=C/C(=O)O` (stereo not drawn), the IC50 was 2 µM in series [1], 0.5 µM in series [2], 10 µM in series [3] and over 200 µM in series [4].

Take `COc1cc(OC)c(S(=O)(=O)N2c3ccccc3CC2C)cc1NC(C)=O` (stereo not drawn): the half-inhibitory concentration (IC50) in series [1] is 8 µM; in series [3] it was over 200 µM; in series [4], over 200 µM.

Take `COc1cc(OC)c(S(=O)(=O)NCc2ccccc2N2CCC(CO)CC2)cc1NC(C)=O`: the IC50 was 80 µM in series [1], 40 µM in series [2], 70 µM in series [3] and over 200 µM in series [4]. The same compound gave a logD in series [5] of 1.03.

As for `COc1cc(OC)c(S(=O)(=O)N2c3ccccc3CCC2C)cc1NS(C)(=O)=O` (stereo not drawn), the IC50 is over 200 µM in series [1], 100 µM in series [2], over 200 µM in series [3] and over 200 µM in series [4].

Take `COc1cc(OC)c(S(=O)(=O)Nc2cccc(F)c2)cc1NC(C)=O`: the half-maximal inhibitory concentration (IC50) in series [1] is 30 µM; in series [2], 15 µM; in series [3], over 200 µM; in series [4] it was over 200 µM.

Consider `COc1cc(OC)c(S(=O)(=O)NCc2ccccc2-c2ccc(C(=O)O)cc2)cc1NC(=O)CCC(=O)O`, for which the half-inhibitory concentration (IC50) in series [1] is 5 µM; in series [2] it was 0.9 µM; in series [3], 15 µM.

In the case of `COc1cc(OC)c(S(=O)(=O)NCc2ccccc2Br)cc1NC(C)=O`, the IC50 in series [1] is 20 µM; in series [2] it was 4 µM; in series [3], over 200 µM; in series [4], over 200 µM.

For `COc1cc(OC)c(S(=O)(=O)NCc2ccccc2N2CCC(C(=O)O)CC2)cc1NC(=O)CCC(=O)O`, the IC50 came out at 1 µM in series [1], 0.5 µM in series [2], 2 µM in series [3] and 50 µM in series [4].

In the case of `COc1cc(OC)c(S(=O)(=O)N2c3ccccc3CCC2C)cc1NC(=O)COC(C)=O` (stereo not drawn), the concentration for half-maximal inhibition (IC50) in series [1] was 2 µM; in series [2] it was 2 µM; in series [3] it was 90 µM; in series [4] it was over 200 µM.

In the case of `COc1cc(OC)c(S(=O)(=O)N2c3ccccc3CCC2C)cc1NC(=O)NCC(=O)O` (stereo not drawn), the IC50 in series [1] is 5 µM; in series [2] it was 0.5 µM; in series [3] it was 20 µM; in series [4], over 200 µM. The compound further had a logD in series [5] of -1.02.

In general, inhibition refers to the percentage by which the read-out fell short of the control. Read a low inhibition as a response near the control. Take `COc1cc(OC)c(S(=O)(=O)N2c3ccccc3CCC2C)cc1NC(=O)COCC(=O)O` (stereo not drawn): the IC50 was 0.3 µM in series [1], 0.2 µM in series [2] and over 200 µM in series [4]. In addition, in series [6], the inhibition came out at 28%. Further, the pH-dependent lipophilicity (logD) in series [5] was -1.

As to `COc1cc(OC)c(S(=O)(=O)NCc2ccccc2N2CCCCC2)cc1NC(=O)CCC(=O)O`, the IC50 in series [1] is 5 µM; in series [2] it was 3 µM; in series [3] it was 12 µM; in series [4], over 200 µM. In series [5], this compound registered a log distribution coefficient (logD) of -0.72.

For `COc1cc(OC)c(S(=O)(=O)N2c3ccccc3CCC2C)cc1NC(=O)COc1ccc(C(C)=O)cc1` (stereo not drawn), the IC50 in series [1], in series [2], in series [3] and in series [4] was over 200 µM throughout.

As to `COc1cc(OC)c(S(=O)(=O)Nc2ccccc2)cc1NC(C)=O`, the half-inhibitory concentration (IC50) was 70 µM in series [1], 20 µM in series [2], over 200 µM in series [3] and over 200 µM in series [4].

With `COc1cc(OC)c(S(=O)(=O)Nc2cccc(C)c2)cc1NC(C)=O`, the 50% inhibitory concentration (IC50) in series [1] was 40 µM; in series [2] it was 17 µM; in series [3] it was over 200 µM; in series [4], over 200 µM.

As to `COc1cc(OC)c(S(=O)(=O)N2CCCCC2C)cc1NC(C)=O` (stereo not drawn), the IC50 is over 200 µM in series [1], 130 µM in series [2], over 200 µM in series [3] and over 200 µM in series [4].

As to `COc1cc(OC)c(S(=O)(=O)NCc2ccccc2N2CCC(CC(=O)O)CC2)cc1NC(=O)CCC(=O)O`, the IC50 in series [1] is 3 µM; in series [2], under 0.4 µM; in series [3], 2 µM; in series [4], 10 µM.

As to `COc1cc(OC)c(S(=O)(=O)NCc2ccc3c(c2)OCO3)cc1NC(C)=O`, the IC50 in series [1], in series [2], in series [3] and in series [4] was over 200 µM throughout.

Take `COc1cc(OC)c(S(=O)(=O)Nc2ccc(C)cc2)cc1NC(C)=O`: the half-maximal inhibitory concentration (IC50) in series [1] is 47 µM; in series [2], 21 µM; in series [3], over 200 µM; in series [4], over 200 µM.

With `COc1cc(OC)c(S(=O)(=O)NCc2ccccc2N2CCC(COC(=O)CCC(=O)O)CC2)cc1NC(=O)CCC(=O)O`, the 50% inhibitory concentration (IC50) in series [2] is 0.25 µM; in series [4], over 200 µM. For the same compound, in series [5], the logD was -1.

Turning to `COc1cc(OC)c(S(=O)(=O)NCc2ccccc2N2CCCCC2)cc1NC(C)=O`, the half-maximal inhibitory concentration (IC50) in series [1] is 120 µM; in series [2] it was over 200 µM; in series [4] it was over 200 µM.

As for `COc1cc(OC)c(S(=O)(=O)Nc2ccccc2F)cc1NC(C)=O`, the IC50 was 10 µM in series [1], 5 µM in series [2], over 200 µM in series [3] and over 200 µM in series [4].

As for `COc1cc(OC)c(S(=O)(=O)N(C)C)cc1NC(C)=O`, the IC50 in series [1], in series [2], in series [3] and in series [4] was over 200 µM in each case.

Consider `COc1cc(OC)c(S(=O)(=O)N2c3ccccc3CCC2C)cc1NC(=O)CSc1ccncc1` (stereo not drawn), for which the half-inhibitory concentration (IC50) is 6 µM in series [1], 1 µM in series [2], over 200 µM in series [3] and over 200 µM in series [4]. Moreover, in series [5], the logD turned out to be 2.8.

For `COc1cc(OC)c(S(=O)(=O)N2c3ccccc3CCC2C)cc1NC(=S)NCC(=O)O` (stereo not drawn), the IC50 in series [1] is 1 µM; in series [2], 0.5 µM; in series [3], 30 µM; in series [4], over 200 µM. In series [5], the logD was -1.04.

For `COc1cc(OC)c(S(=O)(=O)N(C)c2ccccc2)cc1NC(C)=O`, the IC50 in series [1] is 6 µM; in series [2], 3 µM; in series [3], over 200 µM; in series [4] it was over 200 µM.

As for `COc1cc(OC)c(S(=O)(=O)N2c3ccccc3CCC2C)cc1NC(C)=O` (stereo not drawn), the IC50 in series [1] was 3 µM; in series [2], 1.5 µM; in series [3], 55 µM; in series [4] it was over 200 µM. In series [5], this compound had a logD of 1.97.

In the case of `COc1cc(OC)c(S(=O)(=O)N2CCCCC2)cc1NC(C)=O`, the concentration for half-maximal inhibition (IC50) in series [1] is over 200 µM; in series [2], 80 µM; in series [3], over 200 µM; in series [4], over 200 µM.

Turning to `COc1cc(OC)c(S(=O)(=O)Nc2ccc(F)cc2)cc1NC(C)=O`, the half-maximal inhibitory concentration (IC50) in series [1] was 60 µM; in series [2], 25 µM; in series [3], over 200 µM; in series [4], over 200 µM.

Turning to `COc1ccccc1CNS(=O)(=O)c1cc(NC(C)=O)c(OC)cc1OC`, the IC50 was 54 µM in series [1], 10 µM in series [2], over 200 µM in series [3] and over 200 µM in series [4].

As to `COc1cc(OC)c(S(=O)(=O)N(c2ccccc2)C(C)C)cc1NC(C)=O`, the IC50 is 16 µM in series [1], 2 µM in series [2], over 200 µM in series [3] and over 200 µM in series [4].

With `COc1cc(OC)c(S(=O)(=O)N2c3ccccc3CCC2C)cc1NC(=O)CSCC(=O)O` (stereo not drawn), the IC50 in series [1] was 0.2 µM; in series [2], 0.1 µM; in series [3], over 200 µM; in series [4], over 200 µM. The same compound yielded a logD in series [5] of -1.2.

Values taken from ChEMBL document CHEMBL1949578, “Inhibitors of acetyltransferase domain of N-acetylglucosamine-1-phosphate-uridyltransferase/glucosamine-1-phosphate-acetyltransferase (GlmU). Part 1: Hit to lead evaluation of a novel arylsulfonamide series” (Bioorg Med Chem Lett, 2012).
